Results as given in ChEMBL document CHEMBL3745710, “Synthesis, antibacterial and anti-MRSA activity, in vivo toxicity and a structure-activity relationship study of a quinoline thiourea” (Bioorg Med Chem Lett, 2016).
Converted amounts (≈) assume the structure as drawn. One block for each compound: values may come before it. The source made the active and inactive calls. No cut-off for these calls is given here.

Assays:
Staphylococcus aureus [1] = experiment: Antibacterial activity against Staphylococcus aureus NCIMB 12702 after 24 hrs by serial dilution method; type: functional; conditions: for MIC90 / MIC50 / MIC80: Staphylococcus aureus, NCIMB 12702, 24 h
Escherichia coli = experiment: Antibacterial activity against Escherichia coli NCIMB 9485 after 24 hrs by serial dilution method; type: functional; conditions: for MIC90 / MIC50 / MIC80: NCIMB 9485, 24 h
Pseudomonas aeruginosa = experiment: Antibacterial activity against Pseudomonas aeruginosa ATCC 10145 after 24 hrs by serial dilution method; type: functional, organism-based
Staphylococcus aureus [2] = experiment: Antibacterial activity against methicillin-resistant Staphylococcus aureus after 24 hrs by serial dilution method; type: functional
[3] = Toxicity in sixth development stage of Galleria mellonella larvae assessed as survival rate at 1000 ug/ml after 24 hrs; type: organism-based; conditions: in vivo
[4] = Toxicity in sixth development stage of Galleria mellonella larvae assessed as survival rate at 100 ug/ml after 24 hrs; type: organism-based; conditions: in vivo
[5] = Toxicity in sixth development stage of Galleria mellonella larvae assessed as survival rate at 50 ug/ml after 24 hrs; type: organism-based; conditions: in vivo
[6] = Toxicity in sixth development stage of Galleria mellonella larvae assessed as survival rate at 10 ug/ml after 24 hrs; type: organism-based; conditions: in vivo
[7] = Toxicity in sixth development stage of Galleria mellonella larvae assessed as survival rate at 1 ug/ml after 24 hrs; type: organism-based; conditions: in vivo
[8] = Toxicity in sixth development stage of Galleria mellonella larvae assessed as survival rate at 1000 ug/ml after 48 hrs; type: organism-based; conditions: in vivo
[9] = Toxicity in sixth development stage of Galleria mellonella larvae assessed as survival rate at 100 ug/ml after 48 hrs; type: organism-based; conditions: in vivo
[10] = Toxicity in sixth development stage of Galleria mellonella larvae assessed as survival rate at 50 ug/ml after 48 hrs; type: organism-based; conditions: in vivo
[11] = Toxicity in sixth development stage of Galleria mellonella larvae assessed as survival rate at 10 ug/ml after 48 hrs; type: organism-based; conditions: in vivo
[12] = Toxicity in sixth development stage of Galleria mellonella larvae assessed as survival rate at 1 ug/ml after 48 hrs; type: organism-based; conditions: in vivo
[13] = Toxicity in sixth development stage of Galleria mellonella larvae assessed as survival rate at 1000 ug/ml after 72 hrs; type: organism-based; conditions: in vivo
[14] = Toxicity in sixth development stage of Galleria mellonella larvae assessed as survival rate at 100 ug/ml after 72 hrs; type: organism-based; conditions: in vivo
[15] = Toxicity in sixth development stage of Galleria mellonella larvae assessed as survival rate at 50 ug/ml after 72 hrs; type: organism-based; conditions: in vivo
[16] = Toxicity in sixth development stage of Galleria mellonella larvae assessed as survival rate at 10 ug/ml after 72 hrs; type: organism-based; conditions: in vivo
[17] = Toxicity in sixth development stage of Galleria mellonella larvae assessed as survival rate at 1 ug/ml after 72 hrs; type: organism-based; conditions: in vivo
Galleria mellonella = experiment: Toxicity in sixth development stage of Galleria mellonella larvae assessed as larvae pupation at 1 to 1000 ug/ml after 7 days relative to control; type: organism-based; conditions: in vivo, 168 h

MIC90 (Staphylococcus aureus [1]): > 200 µM | MIC90 (Escherichia coli): > 200 µM | MIC (Pseudomonas aeruginosa): inactive
SMILES: COC(=O)[C@@H]1C[C@H](NC(=S)Nc2cc(C(F)(F)F)cc(C(F)(F)F)c2)CN1

SMILES: C=C[C@H]1CN2CC[C@H]1C[C@H]2[C@@H](NC(=S)Nc1cc(C(F)(F)F)cc(C(F)(F)F)c1)c1ccnc2ccc(OC)cc12
MIC50 (Staphylococcus aureus [1]): 3.95 µM (≈ 2.35 µg/mL) | MIC80 (Staphylococcus aureus [1]): 7.9 µM (≈ 4.7 µg/mL) | MIC90 (Staphylococcus aureus [1]): 10.5 µM (≈ 6.26 µg/mL) | MIC50 (Escherichia coli): 2.63 µM (≈ 1.56 µg/mL) | MIC80 (Escherichia coli): 5.26 µM (≈ 3.13 µg/mL) | MIC90 (Escherichia coli): 7.9 µM (≈ 4.7 µg/mL) | MIC (Pseudomonas aeruginosa): inactive | MIC50 (Staphylococcus aureus [2]): 11.4 µM (≈ 6.8 µg/mL) | MIC90 (Staphylococcus aureus [2]): 17.7 µM (≈ 10.5 µg/mL) | survival at 24 h [3]: 100% | survival at 24 h [4]: 100% | survival at 24 h [5]: 100% | survival at 24 h [6]: 100% | survival at 24 h [7]: 100% | survival at 48 h [8]: 100% | survival at 48 h [9]: 100% | survival at 48 h [10]: 100% | survival at 48 h [11]: 100% | survival at 48 h [12]: 97% | survival at 72 h [13]: 100% | survival at 72 h [14]: 100% | survival at 72 h [15]: 100% | survival at 72 h [16]: 100% | survival at 72 h [17]: 97% | Activity (Galleria mellonella): Non-toxic

SMILES: C=C[C@H]1CN2CC[C@H]1C[C@H]2[C@@H](N)c1ccnc2ccc(OC)cc12
MIC50 (Staphylococcus aureus [1]): > 309 µM | MIC90 (Staphylococcus aureus [1]): > 309 µM | MIC50 (Escherichia coli): > 309 µM | MIC90 (Escherichia coli): 309 µM (≈ 100 µg/mL) | MIC (Pseudomonas aeruginosa): inactive

MIC82 (Staphylococcus aureus [1]): 124.9 µM (≈ 107 µg/mL) | MIC90 (Escherichia coli): > 200 µM | MIC (Pseudomonas aeruginosa): inactive
SMILES: CCC1CN2CCC1C[C@H]2[C@@H](Oc1ccc(O[C@@H](c2ccnc3ccc(OC)cc23)[C@@H]2CC3CCN2CC3CC)c2c1C(=O)c1ccccc1C2=O)c1ccnc2ccc(OC)cc12 (stereo partly drawn)

MIC90 (Staphylococcus aureus [1]): 189 µM (≈ 147 µg/mL) | MIC90 (Escherichia coli): > 200 µM | MIC (Pseudomonas aeruginosa): inactive
SMILES: CCC1CN2CCC1C[C@@H]2[C@@H](Oc1nnc(O[C@@H](c2ccnc3ccc(OC)cc23)[C@H]2CC3CCN2CC3CC)c2ccccc12)c1ccnc2ccc(OC)cc12 (stereo partly drawn)

SMILES: CN(C)[C@@H]1CCCC[C@H]1NC(=S)Nc1cc(C(F)(F)F)cc(C(F)(F)F)c1
MIC80 (Staphylococcus aureus [1]): 90.8 µM (≈ 37.5 µg/mL) | MIC50 (Escherichia coli): 23.8 µM (≈ 9.84 µg/mL) | MIC80 (Escherichia coli): 90.8 µM (≈ 37.5 µg/mL) | MIC90 (Escherichia coli): 120 µM (≈ 49.6 µg/mL) | MIC (Pseudomonas aeruginosa): inactive | MIC50 (Staphylococcus aureus [2]): 21.5 µM (≈ 8.91 µg/mL) | MIC90 (Staphylococcus aureus [2]): 32.2 µM (≈ 13.3 µg/mL)

MIC90 (Staphylococcus aureus [1]): > 200 µM | MIC90 (Escherichia coli): > 200 µM | MIC (Pseudomonas aeruginosa): inactive
SMILES: CCC1CN2CCC1C[C@@H]2[C@@H](Oc1nc(-c2ccccc2)nc(O[C@@H](c2ccnc3ccc(OC)cc23)[C@H]2CC3CCN2CC3CC)c1-c1ccccc1)c1ccnc2ccc(OC)cc12 (stereo partly drawn)

MIC50 (Staphylococcus aureus [1]): 135 µM (≈ 50 µg/mL) | MIC90 (Staphylococcus aureus [1]): > 270 µM | MIC50 (Escherichia coli): 101 µM (≈ 37.5 µg/mL) | MIC90 (Escherichia coli): > 270 µM | MIC (Pseudomonas aeruginosa): inactive
SMILES: FC(F)(F)c1cc(NC(=S)NC2CCCCC2)cc(C(F)(F)F)c1

SMILES: CCC1CN2CCC1CC2[C@@H](Oc1cc2ccccc2c2ccccc12)c1ccnc2ccc(OC)cc12 (stereo partly drawn)
MIC90 (Staphylococcus aureus [1]): > 200 µM | MIC90 (Escherichia coli): > 200 µM | MIC (Pseudomonas aeruginosa): inactive

SMILES: CNC(=S)Nc1cc(C(F)(F)F)cc(C(F)(F)F)c1
MIC (Staphylococcus aureus [1]): inactive | MIC (Escherichia coli): inactive | MIC (Pseudomonas aeruginosa): inactive

SMILES: C=CC1CN2CCC1CC2[C@H](OCc1ccccc1)c1ccnc2ccc(OC)cc12 (stereo partly drawn)
MIC90 (Staphylococcus aureus [1]): > 200 µM | MIC90 (Escherichia coli): > 200 µM | MIC (Pseudomonas aeruginosa): inactive
